Measurements taken from US20180353460A1, “METHODS OF TREATING UROLOGICAL DISORDERS USING SARMs” (priority 2014, published 2018).
Entries after “also recorded” stand apart in the source; their conditions may differ.

Key:
[1] = Serum drug concentration by LC-MS/MS in ovariectomized mice; type: in vivo; conditions: female, mouse, oral, 28 days
Experimental: (§1) Six to eight week old female mice (n=5-7) purchased from JAX® Mice were ovariectomized (OVX) or sham operated. Twenty days after OVX, treatment was initiated as outlined in the table below. Compounds of Formulas IX and VIII were dissolved in DSMO/PEG 300 (15:85) and were administered by oral gavage. Body weight and MRI measurements, to evaluate total body lean mass, were recorded at the beginning and at the end of the treatment. The animals were treated for twenty-eight days and then sacrificed, pelvic floor muscles isolated, weighed and stored for RNA and protein extraction. The expression of genes involved in catabolism and anabolism of muscle was measured by mRNA analysis. The serum concentrations of the drugs were measured by LC-MS/MS. The statistical analysis was performed using JMP Pro® software utilizing one way analysis of variance.
After samples were thawed, a 100 μL aliquot of mouse serum from each sample was mixed with 200 μL acetonitrile containing 200 nM compound of Formula XIII as the internal standard. After each sample was thoroughly vortex for 15 seconds, the sample was centrifuged at 3000 rpm for 10 min. Approximately 200 μL supernatant was transferred for LC-MS/MS analysis
Stock solutions of compounds of Formulas IX and VIII were 100 μM in DMSO. A dilution of 1:50 with control mouse serum was made and 200 μL of 2 μM was added to the first micro centrifuge tube. […] Transferred 100 μL from tube 1 (2 μM) to tube 2, vortexed and continued the 2 fold dilution through tube 7. 200 μL of acetonitrile containing 200 nM compound of Formula XIII as the internal standard was added to each tube. After vortexing and centrifuging, 200 μL was transferred to LC-MS/MS analysis. The concentration of each standard curve ranged from 1 μM to 0.0078 μM.
The analysis of compounds of Formulas IX and VIII in serum was performed using LC-MS/MS system consisting of Agilent 1100 HPLC with an MDS/Sciex 4000 Q-Trap™ mass spectrometer. The separation was achieved using a C18 analytical column (Alltima™, 2.1×100 mm, 3 μm) protected by a C18 guard column (Phenomenex™ 4.6 mm ID cartridge with holder). Mobile phase was consisting of channel A (95% acetonitrile+5% water+0.1% formic acid) and channel C (95% water+5% acetonitrile+0.1% formic acid) and was delivered isocratically at a flow rate of 0.4 mL/min. The total runtime for compound of Formula IX was 4.5 min, and the volume injected was 10 μL. The total runtime for compound of Formula VIII was also 4.5 min, and the volume injected was 10.0 μL. Multiple reaction monitoring (MRM) scans were made with curtain gas at 30 for compound of Formula IX, 25 for compound of Formula VIII; collision gas at medium for compound of Formula IX, high for compound of Formula VIII; nebulizer gas and auxiliary gases at 60 and source temperature at 550° C. for both. Molecular ions were formed using an ion spray voltage (IS) of 4200 V (negative mode). Declustering potential (DP), entrance potential (EP), collision energy (CE), product ion mass, and cell exit potential (CXP) were optimized with the values of −20.0, −10.0, −30.0, and −15.0, respectively, for the mass pair 388.1/118.1 (compound of Formula IX). Declustering potential (DP), entrance potential (EP), collision energy (CE), product ion mass, and cell exit potential (CXP) were optimized with the values of −95.9, −9.94, −40.0, and −15.0, respectively, for the mass pair 354.0/118.1 (compound of Formula VIII).
Animals were sacrificed 24 h after the last dose to measure the steady state concentration.

[2] = system: pelvic floor muscles; test: Pelvic floor muscle weight, body weight, lean mass and histology in ovariectomized female mice; type: in vivo, mouse; conditions: OVX mice, 0.5-5 mg/kg/day p.o., 28 days; for pelvic floor muscle weight (cumulative COC, Pc and IL): vs OVX animals
Experimental: as §1
Pelvic floor muscles were paraffin embedded and sections were stained for collagen (Mason trichrome) and elastin (Van Gieson). Stains were evaluated by a pathologist for fiber length and stain intensity.
The pelvic floor muscles in mice are small making the unmagnified visualization difficult. In order to improve the resolution, the pelvic regions of the mice were immersed in formalin for two days after sacrifice before dissecting them under microscope along with precise weight measurement. The COC, Pc, and IL were isolated and weighed using a microbalance that has a resolution as low as a microgram.
Six to eight week old female mice (n=6-8/group) were ovariectomized (OVX) or sham operated. One month after OVX, when the serum hormone levels were at trough, body composition was measured by MRI and treatment was initiated with vehicle or a dose response of one of two SARMs. Twenty eight days after treatment initiation, body composition was again measured, animals were sacrificed, and pelvic floor muscles were weighed. Serum drug concentrations were measured by LC-MS/MS. Muscle sections were stained for collagen and elastin to evaluate the effect of SARMs on architecture. Data were analyzed by One Way ANOVA followed by Tukey test.

SMILES	concentration at 24 h after the last dose ([1]; 0.5 mpk p.o.) [µM]	concentration at 24 h after the last dose ([1]; 2.5 mpk p.o.) [µM]	concentration at 24 h after the last dose ([1]; 5 mpk p.o.) [µM]	pelvic floor muscle weight (cumulative COC, Pc and IL) [2]	total lean body mass by MRI [2]	coccygeus (COC) muscle weight ([2]; vs OVX controls)
C[C@](O)(COc1ccc(C#N)cc1)C(=O)Nc1ccc(C#N)c(C(F)(F)F)c1 [Compound IX, (S)—N-(4-Cyano-3-(trifluoromethyl)phenyl)-3-(4-cyanophenoxy)-2-hydroxy-2-methylpropanamide]	0.862	3.85	6.07	increase the weight of pelvic floor muscles		
C[C@](O)(COc1ccc(C#N)cc1)C(=O)Nc1ccc(C#N)c(Cl)c1 [VIII, (S)—N-(3-Chloro-4-cyanophenyl)-3-(4-cyanophenoxy)-2-hydroxy-2-methylpropanamide]	0.429	2.44	4.1	performed better than compound of Formula IX in increasing the muscle weights; also recorded: increase the weight of pelvic floor muscles	more potent than Compound IX in increasing lean mass	more potent than Compound IX
